In paper PMC12606464, “Investigating NFE2L1 activators for targeted protein aggregate clearance: a follow-up study” (RSC Medicinal Chemistry, 2025):

Test system: C. elegans wild-type (N2)
Experiment: Acute juglone/paraquat-induced oxidative stress resistance in C. elegans N2
Assay type: in vivo, Caenorhabditis elegans
Details: for # deaths/events: over 12 hours; for Median survival: Fig. 5C
Experimental: Fig. 5 RUN-89 prevents protein aggregation and increases stress resistance in C. elegans. (A) The AM140 strain expressing aggregation-prone Q35-YFP was treated with 50 μM RUN-89 or the vehicle for 6 days, followed by microscopy analysis. Overall, 959 Q35-YFP foci (DMSO = 517; RUN-89 = 442) were identified in 102 animals (DMSO: N = 3 populations, n = 55 animals in total; RUN-89: N = 3 populations, n = 47 animals in total). The two dashed horizontal lines indicate the interquartile range, and the thick horizontal line represents the median. The Kolmogorov–Smirnov test verified a significant reduction of surface and integrated optical density of foci after RUN-89 treatment. (B) Representative images of two animals per treatment condition. Images were taken on the same day, using identical settings for the instruments used. (C) Protective effect of RUN-89 against juglone and paraquat-induced stress. […] The mortality was monitored hourly over a 12 hour period. […] For juglone treatment, 629 animals were examined (DMSO: N = 2 populations of 167 and 152 animals, n = 319 animals in total; RUN-89: N = 2 populations of 141 and 169 animals, n = 310 animals in total). Results were analyzed using the Kaplan–Meier method and are presented as survival percentages with standard errors. The survival curves were compared using the Gehan–Breslow–Wilcoxon test (juglone) and log-rank test (paraquat). (A and C) Detailed results of the analysis are shown in SI Tables S10 and S11. *p < 0.05, ****p < 0.001.
Next, we examined whether the compound RUN-89 protects animals from oxidative damage/death induced by increased reactive oxygen species (ROS) levels. In worms, the herbicide paraquat and the naturally occurring quinone compound juglone are well-known for inducing oxidative stress.[84] In this experiment, the wild-type (N2) strain was used, and RUN-89 was administered at a concentration of 50 μM for 24 hours. Following this pretreatment, approximately 130 animals were transferred to plates containing either 180 μM juglone or 200 μM paraquat. Worm mortality was monitored over a 12-hour period. […]
2.13 C. elegans strains and maintenance
The animals were kept at 20 °C according to standard cultivation conditions (Biron & […]
(mgIs72 [rpt-3p::GFP + dpy-5(+)] II) of Caenorhabditis elegans strains and E. coli strain OP50 were obtained from the Caenorhabditis Genetic Centre (CGC, University of Minnesota , http://cbs.umn.edu/cgc/home). […]
Kolmogorov-Smirnov test performed in GraphPad Prism (v 10.6.1).
2.15 Acute juglone/paraquat-induced oxidative stress resistance in C.
Eggs of the wild-type strain (N2) were placed in liquid S-basal medium supplemented with E. coli OP50 as a food source. Upon reaching the young adult stage, they were exposed to either 50 µM RUN 89 or an equivalent volume of solvent (control group) and incubated at 20 °C for 24 hours. Approximately 130 animals were placed on plates containing either 180 µM juglone or 200 µM paraquat to induce severe oxidative stress .(5, 6) The number of dead animals was recorded each hour throughout the 12-hour experiment. The data were then analyzed using Kaplan-Meier survival analysis, and the results were examined through this method. Su rvival curves were compared via the Gehan-Breslow-Wilcoxon test or the log-rank (Mantel-Cox) test in GraphPad Prism software ( v 10.6.1).

[1] = juglon stress, B = juglon + DMSO, C = juglon + RUN-89
[2] = paraquat stress, B = paraquat + DMSO, C = paraquat + RUN-89

Structure (SMILES): COc1ccc(/C=C2\CC(NC(=O)C3CCCC3)C/C(=C\c3ccc(OC)c(OC)c3)C2=O)cc1OC (stereo not drawn) [RUN-89]
- Protection against juglone-induced lethal oxidative stress (N2, 50 μM for 24 h, then 180 μM juglone, mortality over 12 h): significant protective effect
- Protection against paraquat-induced lethal oxidative stress (N2, 50 μM for 24 h, then 200 μM paraquat, mortality over 12 h): significant protective effect
- Ratio of median survival (reciprocal), juglon + RUN-89 / juglon + DMSO (juglon stress): 1.25
- Ratio of median survival, juglon + DMSO / juglon + RUN-89 (juglon stress): 0.8
- # deaths/events (juglon stress, 306 subjects at 0 h): 305
- # at risk (juglon stress, 1 hour, 306 at 0 h): 306
- # at risk (juglon stress, 2 hours, 306 at 0 h): 289
- # at risk (juglon stress, 3 hours, 306 at 0 h): 235
- # at risk (juglon stress, 4 hours, 306 at 0 h): 190
- # at risk (juglon stress, 5 hours, 306 at 0 h): 164
- # at risk (juglon stress, 6 hours, 306 at 0 h): 124
- # at risk (juglon stress, 7 hours, 306 at 0 h): 105
- # at risk (juglon stress, 8 hours, 306 at 0 h): 82
- # at risk (juglon stress, 9 hours, 306 at 0 h): 37
- # at risk (juglon stress, 10 hours, 306 at 0 h): 13
- # at risk (juglon stress, 11 hours, 306 at 0 h): 7
- # at risk (juglon stress, 12 hours, 306 at 0 h): 1
- Median survival (juglon stress, juglon + DMSO median 4): 5 h
- Hazard Ratio (Mantel-Haenszel) B/C [1]: 1.206
- Hazard Ratio (Mantel-Haenszel) C/B [1]: 0.8295
- Hazard Ratio (logrank) B/C [1]: 1.141
- Hazard Ratio (logrank) C/B [1]: 0.8761
- Ratio of median survival (reciprocal), paraquat + RUN-89 / paraquat + DMSO (paraquat stress): 1.4
- Ratio of median survival, paraquat + DMSO / paraquat + RUN-89 (paraquat stress): 0.7143
- # deaths/events (paraquat stress, 274 subjects at 0 h): 273
- # at risk (paraquat stress, 1 hour, 274 at 0 h): 274
- # at risk (paraquat stress, 2 hours, 274 at 0 h): 263
- # at risk (paraquat stress, 3 hours, 274 at 0 h): 241
- # at risk (paraquat stress, 4 hours, 274 at 0 h): 216
- # at risk (paraquat stress, 5 hours, 274 at 0 h): 209
- # at risk (paraquat stress, 6 hours, 274 at 0 h): 167
- # at risk (paraquat stress, 7 hours, 274 at 0 h): 148
- # at risk (paraquat stress, 8 hours, 274 at 0 h): 130
- # at risk (paraquat stress, 9 hours, 274 at 0 h): 109
- # at risk (paraquat stress, 10 hours, 274 at 0 h): 84
- # at risk (paraquat stress, 11 hours, 274 at 0 h): 44
- # at risk (paraquat stress, 12 hours, 274 at 0 h): 11
- Median survival (paraquat stress, paraquat + DMSO median 5): 7 h
- Hazard Ratio (Mantel-Haenszel) B/C [2]: 1.524
- Hazard Ratio (Mantel-Haenszel) C/B [2]: 0.6563
- Hazard Ratio (logrank) B/C [2]: 1.357
- Hazard Ratio (logrank) C/B [2]: 0.7368
